The values below come from patent US8552052B2, “Use of diindolylmethane-related indoles for the treatment and prevention of respiratory syncytial virus associated conditions” (BioResponse, L.L.C., priority 2004, dated 2013).

Entries after “also recorded” stand apart in the source; their conditions may differ.

The subject of one series is RSV, strain A2. Description: Production of infectious RSV from infected A549 cells (plaque titer on HEp-2 monolayers). Type of series: cell-based, Respiratory Syncytial Virus. As to the method:
Cell Culture—A549 cells, a tumor cell line with properties of normal airway epithelial cells, were obtained from American Type Culture Collection (ATCC, Manassas, Va.) and incubated at 37° C. in 5% CO2. The cells were cultured in Eagle's minimum essential medium (MEM, Invitrogen) supplemented with 10% fetal bovine serum (HyClone, Logan, Utah) and […] gentamicin. The A549 cells were subcultured by harvesting in 0.12% trypsin no more than 20 times from stock originally designated at pass 70. To minimize effects of exogenous growth factors or cytokines in this system, the supplemented serum concentration was reduced to 0.5% 24 h prior to and during all experiments with RSV infection. […] RSV Virus—RSV, strain A2, was obtained from Advanced Biotechnologies Inc. (Columbia, Md.) and was used directly as supplied for all experiments. The viral preparation was tested to have a TCID50 titer of ˜1×10^9 in Hep-2 cells at 7 days. […] Levels of Production of Infectious RSV—Production of infectious RSV particles in A549 cell culture in the presence of various concentrations of DIM was measured using a method where the cell free media were titered for RSV infectious activity on a monolayer culture of Hep-2 cells. […] The plaques that appeared around 48 h of incubation were visualized by neutral red staining and counted.

The conditions of series [1]: water and lipid; cited from earlier work.
The test system of series [2] is prostate cancer cell lines. The settings on record: cited from earlier work.
The subject of another series is rainbow trout. The note with it: cited from earlier work.
Series [3] has as its system Human Papilloma Virus (HPV) oncogene altered cervical cancer cell lines. The settings on record: cited from earlier work.
The next series concerns RSV Long strain. Nature of the series: Respiratory rate in RSV infected BALB/c mice. The series is classed as in vivo. The settings on record: oral, SC low dose and SC high dose DIM; 6 and 10 days pi; vs RSV-infected, untreated control mice; FIG. 6. As to the method: The Following Experimental BALB/c Groups and Treatment Protocol Using DIM were Studied: • 1. RSV infected positive control group, infected with RSV and injected subcutaneously (SC) once daily with DMSO/Phosphate Buffered Saline (PBS) vehicle. • 2. RSV infected, Low dose Parenteral DIM group (15 mg/kg/day), injected SC once daily with DIM suspension • 3. RSV infected, High dose DIM Group (150 mg/kg/day), injected SC once daily with DIM suspension • 4. RSV infected, orally treated DIM group (250 mg/kg/day from absorption enhanced DIM [Example 6.1]), added to powdered feed • 5. Uninfected negative control group, nasally administered vehicle only, and injected subcutaneously (SC) once daily with DMSO/PBS vehicle
Mouse treatment, infection and harvest. Intranasal application of RSV in BALB/c mice followed an established procedure (Bitko et al., 2005, Nat Med. 11(1):50-5) and causes predictable pulmonary disease and inflammation. For RSV infection, RSV stock was diluted such that each mouse was given 10^7 pfu (plaque forming unit) of the virus intranasally. […]
Pulmonary viral assay and clinical measurements. […] Respiratory rates (breaths per min) were determined by counting over a period of 2-3 mins. […]

For the compound `c1ccc2c(Cc3c[nH]c4ccccc34)c[nH]c2c1` [DIM, 3,3′-diindolylmethane], the “RSV yield: viral replication and production of extracellular, progeny RSV viral particles” value in the series with RSV, strain A2 (72 hour treatment of infected A549 cells, DIM 70, 210, 700 nM, LY294002 2 and 5 μM, FIG. 2) was “reduced production of infectious, progeny RSV virons; also recorded: significantly reduced viral replication and production of extracellular, progeny RSV viral particles”. The “Reduction of RSV replication by DIM compared with LY294002” value with RSV, strain A2 (infected A549 cells, 72 h, nM DIM vs higher concentrations of LY294002) is reported as “equal or greater to that caused by LY294002; also recorded: comparable to that seen with higher concentrations of LY294002”. Besides, in series [1], the solubility result is given as “low solubility”. The anti-androgen activity result in series [2] is recorded as “anti-androgen activity similar to non-indole antiandrogen drugs”. In the series on rainbow trout, the estrogenic activity result is on record as “estrogenic”. In series [3] (HPV oncogene altered cervical cancer cell lines), the induction of apoptosis entry is listed as “specifically induce apoptosis”. For the same compound, the “induction of markers of apoptosis compared with I3C” value in series [3] (cell culture) is recorded as “more active than I3C”. The respiratory rate result with RSV Long strain was “normalized respiratory rate; also recorded: lower respiratory rate”.
